IC50 data for 15 compounds are collected here from patent US12595253B2, “Benzamides of pyrazolylamino-pyrimidinyl derivatives, and compositions and methods thereof” (LYNK PHARMACEUTICALS CO. LTD., priority 2019, dated 2026).

Test [1] addresses T1, FLT3 (Homo sapiens, UniProt P36888).
T1 construct: purchased Carna Biosciences
T1 sequence (P36888 27-993): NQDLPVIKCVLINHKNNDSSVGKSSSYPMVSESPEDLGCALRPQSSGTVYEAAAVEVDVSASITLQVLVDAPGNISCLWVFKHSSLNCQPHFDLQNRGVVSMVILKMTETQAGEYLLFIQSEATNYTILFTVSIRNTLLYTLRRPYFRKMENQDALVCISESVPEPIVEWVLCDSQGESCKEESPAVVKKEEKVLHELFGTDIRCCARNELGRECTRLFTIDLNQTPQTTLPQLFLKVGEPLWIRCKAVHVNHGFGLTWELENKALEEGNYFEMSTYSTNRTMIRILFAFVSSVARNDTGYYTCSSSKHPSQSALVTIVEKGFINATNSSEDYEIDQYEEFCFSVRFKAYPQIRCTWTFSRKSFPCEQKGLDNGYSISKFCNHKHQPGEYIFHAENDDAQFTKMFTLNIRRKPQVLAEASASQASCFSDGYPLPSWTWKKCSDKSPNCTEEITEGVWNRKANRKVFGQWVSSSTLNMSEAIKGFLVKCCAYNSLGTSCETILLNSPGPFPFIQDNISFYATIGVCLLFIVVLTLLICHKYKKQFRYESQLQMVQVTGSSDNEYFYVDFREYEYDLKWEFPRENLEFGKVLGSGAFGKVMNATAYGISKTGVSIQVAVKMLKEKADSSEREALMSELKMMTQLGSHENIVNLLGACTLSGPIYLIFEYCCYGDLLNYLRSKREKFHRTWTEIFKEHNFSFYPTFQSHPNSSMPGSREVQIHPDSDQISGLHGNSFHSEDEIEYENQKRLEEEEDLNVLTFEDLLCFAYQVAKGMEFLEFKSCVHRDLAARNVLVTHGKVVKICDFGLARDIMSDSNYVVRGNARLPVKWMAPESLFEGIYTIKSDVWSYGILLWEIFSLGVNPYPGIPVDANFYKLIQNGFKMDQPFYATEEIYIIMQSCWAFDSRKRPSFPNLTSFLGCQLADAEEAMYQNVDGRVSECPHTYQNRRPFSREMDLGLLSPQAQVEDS
The test is described as follows: FLT3 microfluidic kinase assay. It is filed as biochemical. The procedure: Compounds were tested against FLT3, FLT3ITD and FLT3D835Y.
Assay Formats: FLT3 activity was determined in the reaction buffer 50 mM HEPES, 10 mM MgCl2 and 2 mM DTT by a microfluidic assay. The phosphorylation of a FAM labeled peptide substrate was monitored in the Caliper EZ Reader II (Perkin Elmer). The assay condition for each batch of enzyme (Carna Biosciences) was optimized to obtain 10% conversion rate of peptide substrate.
The test compounds were dissolved in DMSO to a stock concentration of 10 mM. 3-fold serially diluted compounds with top concentration of 5 μM were pre-incubated with FLT3, FLT3ITD or FLT3D835Y for 10 min at ambient temperature. The final DMSO concentration of assay mixture was 1%. […] The reaction was stopped by adding 50 mM EITA. The reaction time for FLT3, FLT3ITD and FLT3D8335Y was 30 min, 40 min and 40 min, respectively.
And the well without compound but with equivalent DMSO was defined as no inhibition. The percent inhibition was calculated by the following formula. % Inhibition=(Conversionmax−Conversionsample)/(Conversionmax−Conversionmin)*100 • Conversionmax means the conversion rate in the positive well without addition of compound • Conversionmin means the conversion rate in the well without addition of enzyme • Conversionsample means the conversion rate of test compounds
The dose-response (percent inhibition) curve was plotted and IC50 values were determined by GraphPad software.

The target in test [2] is T2, CYP1A2 (Homo sapiens, UniProt P05177).
T2 construct: 0.2 mg/mL human liver microsomes was pre-incubated in 180 μL reaction mixture; from tissue; host or cells: pooled human liver microsomes
T2 sequence (P05177 1-516): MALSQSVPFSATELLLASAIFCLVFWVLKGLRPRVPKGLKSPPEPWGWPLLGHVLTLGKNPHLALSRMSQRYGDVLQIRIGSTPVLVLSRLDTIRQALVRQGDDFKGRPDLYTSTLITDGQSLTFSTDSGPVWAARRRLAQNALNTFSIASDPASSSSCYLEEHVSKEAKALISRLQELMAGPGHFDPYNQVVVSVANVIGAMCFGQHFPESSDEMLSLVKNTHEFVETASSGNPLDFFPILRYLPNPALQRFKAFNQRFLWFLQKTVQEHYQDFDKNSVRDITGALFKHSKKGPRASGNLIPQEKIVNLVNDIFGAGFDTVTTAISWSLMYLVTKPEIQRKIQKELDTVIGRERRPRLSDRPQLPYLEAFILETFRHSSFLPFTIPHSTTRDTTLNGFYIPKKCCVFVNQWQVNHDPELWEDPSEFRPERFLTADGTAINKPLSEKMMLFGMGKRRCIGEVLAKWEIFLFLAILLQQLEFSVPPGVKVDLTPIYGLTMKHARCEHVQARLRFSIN
The test is described as follows: CYPs inhibition in pooled human liver microsomes, probe substrate Phenacetin. It is filed as in vitro ADME. Here is the method:
(§1) The inhibitory potential of test articles in pooled human liver microsomes was evaluated by the method using a cocktail of CYP substrates. […] For the negative control well, the test articles was replaced with 20 μL reaction buffer. After 10 min of pre-incubation at 37° C., 20 μL 10 mM NADPH cofactor was added to the pre-reaction mixtures. After another 10 min incubation, the reaction was stopped by adding 400 μL of ice cold acetonitrile solution containing tolbutamide and labetalol served as internal standards. The incubation mixtures were centrifuged at 4000×g for 20 min, and then the supernatants were analyzed by LC-MS/MS after dilution. SigmaPlot was applied to plot % control activity versus the test compound concentrations, and for non-linear regression analysis of the data. IC50 values of test articles were determined using 3-parameter logistic equation.
Background: Liver microsomes are vesicles of endoplasmic reticulum, rich in cytochrome P450 enzymes.

Test [3] deals with T3, CYP3A4 (Homo sapiens, UniProt P08684).
T3 construct: 0.2 mg/mL human liver microsomes was pre-incubated in 180 μL reaction mixture; from tissue; host or cells: pooled human liver microsomes
T3 sequence (P08684 whole entry): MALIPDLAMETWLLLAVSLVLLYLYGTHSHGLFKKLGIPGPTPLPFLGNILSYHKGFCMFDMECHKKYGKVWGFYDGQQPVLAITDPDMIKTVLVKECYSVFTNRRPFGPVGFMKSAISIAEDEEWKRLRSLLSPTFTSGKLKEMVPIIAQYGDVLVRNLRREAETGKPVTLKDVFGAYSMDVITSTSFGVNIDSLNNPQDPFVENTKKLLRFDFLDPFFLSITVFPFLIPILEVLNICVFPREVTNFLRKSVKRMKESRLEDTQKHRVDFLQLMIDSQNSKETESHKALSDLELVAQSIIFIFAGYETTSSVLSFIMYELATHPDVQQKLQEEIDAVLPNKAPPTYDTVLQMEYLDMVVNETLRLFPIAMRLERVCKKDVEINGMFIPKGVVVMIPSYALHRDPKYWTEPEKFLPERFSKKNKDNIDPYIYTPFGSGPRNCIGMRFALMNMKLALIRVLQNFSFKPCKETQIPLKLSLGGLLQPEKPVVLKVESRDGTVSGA
The test can be described thus: CYPs inhibition in pooled human liver microsomes, probe substrate Midazolam. It is filed as in vitro ADME. The procedure: as §1

Usually IC50 stands for the concentration needed to halve the response being measured. Low readings indicate greater potency, high ones weaker potency. Consider `CCNC(=O)c1ccc(-c2nc(Nc3cnn(C)c3)ncc2C)cc1` [Example 222, N-ethyl-4-(5-methyl-2-((1-methyl-1H-pyrazol-4-yl)amino)pyrimidin-4-yl)benzamide], for which the IC50 in test [1] came to 1.89 µM.

As for `Cc1cnc(Nc2cnn(C3CC(C)(C)OC(C)(C)C3)c2)nc1-c1ccc(C(=O)NCC#N)cc1` [Example 113, N-(cyanomethyl)-4-(5-methyl-2-((1-(2,2,6,6-tetramethyltetrahydro-2H-pyran-4-yl)-1H-pyrazol-4-yl)amino)pyrimidin-4-yl)benzamide], the IC50 in test [2] is above 50 µM; in test [3] it was 19.6 µM.

`Cc1cnc(Nc2cnn(C3CCN(C(=O)CO)CC3)c2)nc1-c1ccc(C(=O)N[C@@H](C)C#N)cc1` [Example 119, (S)—N-(1-cyanoethyl)-4-(2-((1-(1-(2-hydroxyacetyl)piperidin-4-yl)-1H-pyrazol-4-yl)amino)-5-methylpyrimidin-4-yl)benzamide]: the IC50 in test [2] and in test [3] was above 50 µM in each case.

Take `CC[C@@H](C#N)NC(=O)c1ccc(-c2nc(Nc3cnn(C4CCNCC4)c3)ncc2Cl)cc1` [Example 183, (S)-4-(5-chloro-2-((1-(piperidin-4-yl)-1H-pyrazol-4-yl)amino)pyrimidin-4-yl)-N-(1-cyanopropyl)benzamide]: the IC50 is above 50 µM in test [2] and 18.2 µM in test [3].

In the case of `C[C@@H](C#N)NC(=O)c1ccc(-c2nc(Nc3cnn(C4CCNCC4)c3)ncc2Cl)cc1` [Example 165, (S)-4-(5-chloro-2-((1-(piperidin-4-yl)-1H-pyrazol-4-yl)amino)pyrimidin-4-yl)-N-(1-cyanoethyl)benzamide], the IC50 is above 50 µM in test [2] and 41.5 µM in test [3].

On to `C[C@@H](C#N)NC(=O)c1ccc(-c2nc(Nc3cnn(C)c3)ncc2Cl)cc1` [Example 125, (S)-4-(5-chloro-2-((1-methyl-1H-pyrazol-4-yl)amino)pyrimidin-4-yl)-N-(1-cyanoethyl)benzamide], for which half-maximal inhibition in test [1] (IC50) required 0.0236 µM.

In test [1], `CNC(=O)c1ccc(-c2nc(Nc3cnn(C)c3)ncc2C)cc1` [Example 10, N-Methyl-4-(5-methyl-2-((1-methyl-1H-pyrazol-4-yl)amino)pyrimidin-4-yl)benzamide] showed an IC50 of 1.2 µM.

With `C[C@@H](C#N)NC(=O)c1ccc(-c2nc(Nc3cnn(C4CCN(C)CC4)c3)ncc2Cl)cc1` [Example 43, (S)-4-(5-Chloro-2-((1-(1-methylpiperidin-4-yl)-1H-pyrazol-4-yl)amino)pyrimidin-4-yl)-N-(1-cyanoethyl)benzamide], the IC50 in test [2] and in test [3] was above 50 µM throughout.

In test [1], `Cc1cnc(Nc2cnn(C)c2)nc1-c1ccc(C(=O)NC(C)C)cc1` [Example 223, N-isopropyl-4-(5-methyl-2-((1-methyl-1H-pyrazol-4-yl)amino)pyrimidin-4-yl)benzamide] had an IC50 of 1.1 µM.

`Cn1cc(Nc2ncc(Cl)c(-c3ccc(C(=O)NCC#N)cc3)n2)cn1` [Example 34, 4-(5-Chloro-2-((1-methyl-1H-pyrazol-4-yl)amino)pyrimidin-4-yl)-N-(cyanomethyl)benzamide] showed an IC50 in test [1] of 0.0109 µM.

In turn, `CC[C@@H](C#N)NC(=O)c1ccc(-c2nc(Nc3cnn(C4CC4)c3)ncc2Cl)cc1` [Example 61, (S)-4-(5-chloro-2-((1-cyclopropyl-1H-pyrazol-4-yl)amino)pyrimidin-4-yl)-N-(1-cyanopropyl)benzamide] showed an IC50 in test [1] of 0.00336 µM.

In the case of `N#CCNC(=O)c1ccc(-c2nc(Nc3cnn(C4CC4)c3)ncc2Cl)cc1` [Example 95, 4-(5-Chloro-2-((1-cyclopropyl-1H-pyrazol-4-yl)amino)pyrimidin-4-yl)-N-(cyanomethyl)benzamide], 0.00535 µM corresponded to half-maximal inhibition in test [1] (IC50).

For `C[C@@H](C#N)NC(=O)c1ccc(-c2nc(Nc3cnn(C4CC4)c3)ncc2Cl)cc1` [Example 111, (S)-4-(5-Chloro-2-((1-cyclopropyl-1H-pyrazol-4-yl)amino)pyrimidin-4-yl)-N-(1-cyanoethyl)benzamide], the IC50 in test [1] came out at 0.00673 µM.

`CC[C@@H](C#N)NC(=O)c1ccc(-c2nc(Nc3cnn(C4CCN(C)CC4)c3)ncc2C)cc1` [Example 184, (S)—N-(1-Cyanopropyl)-4-(5-methyl-2-((1-(1-methylpiperidin-4-yl)-1H-pyrazol-4-yl)amino)pyrimidin-4-yl)benzamide]: the IC50 in test [2] and in test [3] was above 50 µM each time.

With `Cc1cnc(Nc2cnn(CC#N)c2)nc1-c1ccc(C(=O)NCC#N)cc1` [Example 4, N-(Cyanomethyl)-4-(2-((1-(cyanomethyl)-1H-pyrazol-4-yl)amino)-5-methylpyrimidin-4-yl)benzamide], the figures for the IC50 in test [2] and in test [3] were 45.8 µM and above 50 µM, respectively.
